Measured values: patent US8354416B2 (Glaxo Group Limited, priority 2005, dated 2013)
“Also recorded” adds a separate entry of the source.

Columns and labels:
[1] = system: influx of neutrophils to the lung in LPS-challenged rats; test: Rat LPS neutrophilia model; format: in vivo; conditions: intratracheal, LPS aerosol 100 ug/ml, in at least one of the range of conditions tested, significance p<0.05
In short: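 Compound given intratracheally (200 ul suspension, or dry powder blend) to isoflurane-anesthetized rats 15 min–24 hours before 15 min exposure to LPS aerosol (100 ug/ml). Four hours later, bronchoalveolar lavage cells were counted differentially. Data are % inhibition of neutrophils versus no-compound controls at a given concentration and pretreat time.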

[2] = system: TNF-stimulated IL8 production by human neutrophils; test: TNF-stimulated IL-8 production from human neutrophils; conditions: read-out: IC50, TNF-stimulated IL-8 production from human neutrophils, broad range of data upon multiple runs
Protocol: The effect of test compounds on TNF-stimulated IL8 production by human neutrophils is measured as follows. Neutrophils are prepared from blood obtained from consenting donors, using standard methods. Blood is collected in heparinized syringes and layered over histopaque (30 ml/20 ml). Following centrifugation, the red cell pellet is resuspended in PBS and purified over a dextran gradient. Red blood cells are lysed with water for 40 sec, remaining granulocytes collected by centrifugation and resuspended at 1.5×10^6 cells/ml. Cells are added (0.5-1 ml) to 48 well plates already containing compound at 1000× final concentration in neat DMSO or 10% DMSO in RPMI1640 with 10% FBS. TNF (final concentration 100 ng/ml) is used as the stimulus. Cells incubated for approximately 20 hrs at 37° C., 5% CO2. Levels of IL-8 in the cell free supernatant are determined by sandwich ELISA, and inhibition relative to a control with DMPO but no compound is calculated.

Recombinant human p38α = target: T1, Recombinant human p38α (Homo sapiens, UniProt Q16539); test: Time-resolved fluorescence resonance energy transfer (TR-FRET) kinase assay (standard or low volume); format: biochemical; conditions: no IC50 at a concentration of less than 16 uM
T1 construct: His; made in house
Protocol: Time-Resolved Fluorescence Resonance Energy Transfer Kinase Standard Assay
(§1) Recombinant human p38α was expressed as a His-tagged protein. To activate this protein, 3 μM unactivated p38α was incubated in 200 mM Hepes pH 7.4, 625 mM NaCl, 1 mM DTT with 27 nM active MKK6 (Upstate), 1 mM ATP and 10 mM MgCl2 The activity of the MKK6-activated p38α was assessed using a time-resolved fluorescence resonance energy transfer (TR-FRET) assay.
Biotinylated-GST-ATF2 (residues 19-96, 400 nM final), ATP ([…]) and MgCl2 (5 mM final) in assay buffer (40 mM HEPES pH 7.4, 1 mM DTT) were added to wells containing 1 ul of various concentrations of compound or DMSO vehicle (3% final) in NUNC 384 well black plate. […] The degree of phosphorylation of GST-ATF2 was measured using a Packard Discovery plate reader (Perkin-Elmer Life Sciences, Pangbourne, UK) as a ratio of specific 665 nm energy transfer signal to reference europium 620 nm signal.
Time-Resolved Fluorescence Resonance Energy Transfer Kinase Low Volume Assay
as §1, with “pH7.4,” for “pH 7.4,”, “assay. […]” for “assay.”

T1 sequence (Q16539 whole entry): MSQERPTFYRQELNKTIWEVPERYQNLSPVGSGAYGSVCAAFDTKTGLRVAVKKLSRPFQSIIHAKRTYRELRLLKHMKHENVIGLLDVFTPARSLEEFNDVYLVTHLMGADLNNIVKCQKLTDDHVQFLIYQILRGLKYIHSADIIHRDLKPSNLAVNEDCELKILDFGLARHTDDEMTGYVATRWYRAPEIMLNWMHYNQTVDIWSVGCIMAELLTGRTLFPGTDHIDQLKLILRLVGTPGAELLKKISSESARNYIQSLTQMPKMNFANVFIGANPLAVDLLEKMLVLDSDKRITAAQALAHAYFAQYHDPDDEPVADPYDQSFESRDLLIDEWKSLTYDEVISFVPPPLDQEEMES

CCN(CC)CCCNc1nc(-c2cc(C(=O)N(C)C)ccc2C)c2ccc(=O)n(-c3c(F)cccc3F)c2n1 [Example 120, 3-[2-{[3-(diethylamino)propyl]amino}-8-(2,6-difluorophenyl)-7-oxo-7,8-dihydropyrido[2,3-d]pyrimidin-4-yl]-N,N,4-trimethylbenzamide]
inhibition of neutrophilia (neutrophil levels in airway lavage relative to no compound controls) [1]: statistically nonsignificant inhibition of neutrophilia; also recorded: inactive | IC50 [2]: > 1 nM

Cc1ccc(C(=O)NC2CCCC2)cc1-c1nc(N2CCC(N3CCC(C)CC3)CC2)nc2c1ccc(=O)n2-c1c(F)cccc1F [Example 169, N-cyclopentyl-3-[8-(2,6-difluorophenyl)-2-(4-methyl-1,4′-bipiperidin-1′-yl)-7-oxo-7,8-dihydropyrido[2,3-d]pyrimidin-4-yl]-4-methylbenzamide]
inhibition of neutrophilia (neutrophil levels in airway lavage relative to no compound controls) [1]: statistically nonsignificant inhibition of neutrophilia

Cc1ccc(C(=O)NC(C)C)cc1-c1nc(NCCN(C)C)nc2c1ccc(=O)n2-c1c(F)cccc1F [Example 117, 3-(8-(2,6-difluorophenyl)-2-{[2-(dimethylamino)ethyl]amino}-7-oxo-7,8-dihydropyrido[2,3-d]pyrimidin-4-yl)-4-methyl-N-(1-methylethyl)benzamide]
inhibition of neutrophilia (neutrophil levels in airway lavage relative to no compound controls) [1]: statistically significant inhibition of neutrophilia

Cc1ccc(C(=O)NC(C)C)cc1-c1nc(N2CCC(N3CCC(C)CC3)CC2)nc2c1ccc(=O)n2-c1c(F)cccc1F [163(c), 3-[8-(2,6-difluorophenyl)-2-(4-methyl-1,4′-bipiperidin-1′-yl)-7-oxo-7,8-dihydropyrido[2,3-d]pyrimidin-4-yl]-4-methyl-N-(1-methylethyl)benzamide]
inhibition of neutrophilia (neutrophil levels in airway lavage relative to no compound controls) [1]: statistically nonsignificant inhibition of neutrophilia

Cc1ccc(C(=O)Nc2nccs2)cc1-c1nc(NC2CC(C)(C)NC(C)(C)C2)nc2c1ccc(=O)n2-c1c(F)cccc1F [Example 67, 3-{8-(2,6-difluorophenyl)-7-oxo-2-[(2,2,6,6-tetramethyl-4-piperidinyl)amino]-7,8-dihydropyrido[2,3-d]pyrimidin-4-yl}-4-methyl-N-1,3-thiazol-2-ylbenzamide]
inhibition of neutrophilia (neutrophil levels in airway lavage relative to no compound controls) [1]: statistically nonsignificant inhibition of neutrophilia

Cc1ccc(C(=O)NCCc2ccccc2)cc1-c1nc(NC2CC(C)(C)NC(C)(C)C2)nc2c1ccc(=O)n2-c1c(F)cccc1F [Example 28, 3-{8-(2,6-difluorophenyl)-7-oxo-2-[(2,2,6,6-tetramethyl-4-piperidinyl)amino]-7,8-dihydropyrido[2,3-d]pyrimidin-4-yl}-4-methyl-N-(2-phenylethyl)benzamide]
inhibition of neutrophilia (neutrophil levels in airway lavage relative to no compound controls) [1]: statistically nonsignificant inhibition of neutrophilia

CCN(CC)CCCNc1nc(-c2ccc(C(=O)O)cc2)c2ccc(=O)n(-c3c(F)cccc3F)c2n1 [Example 188(a), 4-[2-{[3-(diethylamino)propyl]amino}-8-(2,6-difluorophenyl)-7-oxo-7,8-dihydropyrido[2,3-d]pyrimidin-4-yl]benzoic acid]
pIC50, TR-FRET kinase assay (Recombinant human p38α): less than 4.8
